Results: US20230150951A1, “2,5- OR 2,6-DISUBSTITUTED HYDROQUINONE DERIVATIVES WITH AT LEAST ONE CARBOXY, SULFO OR AMIDO GROUP USEFUL AS MEDICAMENTS” (OM PHARMA SA, priority 2020, published 2023)
pIC50: −log10 of the molar value.

Assays:
Format in all cases: cell-based
[1] = biological target: T1, FGF-2 (Homo sapiens, UniProt P09038); experiment: FGF-2 induced sprouting of HUVEC, spheroid-based cellular angiogenesis assay; conditions: FGF-2 25 ng/mL preincubated with compound, 24 h
T1 construct: purchased Peprotech 100-18C
Procedure: (§1) Aim of this in vitro method is to assess compounds effects on FGF-2, FGF-1, or VEGF-A induced sprouting of human umbilical vein endothelial cells (HUVEC) in the spheroid-based cellular angiogenesis assay. Before adding the growth factors to the cells, they were preincubated with the compound. Sunitinib was tested as a control (without preincubation).
(§2) IC50 values determined for the tested compounds are expressed in microM [μM] and the values for the inhibition of FGF-1, FGF2 and VEGF-A induced growth (sprouting) are listed after each compound in the examples after chemical characterization.
(§3) Sprouting test was performed on the compounds dissolved in DMSO to reach 100-fold concentrated stock solutions and dissolved in culture media. Sunitinib as reference compound was provided by ProQinase GmbH. Growth factors were purchased from rhFGF-basic (FGF-2), Peprotech, New Jersey, USA, #100-18C, Lot #0415571; rhFGF-acidic (FGF-1), Peprotech, New Jersey, USA, #100-17A, Lot #031207; hVEGF-A165 (ProQinase GmbH, Freiburg, Germany; 05.02.2010) were used for stimulation of HUVEC cells growth.
(§4) Test system: Endothelial cells from human umbilical vein (HUVEC) from pooled donors were stored frozen with 70% medium, 20% FCS, 10% DMSO at about 1×10^6 cells/ampoule. HUVEC cells, primary human umbilical vein endothelial cells (PromoCell, Heidelberg, Germany), were used after passage 3 to 4. Morphology of the cells are adherent, cobblestone-like growing as monolayer and were cultured in endothelial cell growth and basal medium (ECGM/ECBM, PromoCell). The subculture was split 1:3; every 3-5 days, seed out at ca. 1×10^4 cells/cm^2 and incubated at 37° C. with 5% CO2 with a doubling time 24-48 hours
(§5) Dilution of test compounds: 100× concentrated solutions (concerning to the final assay concentrations) of each test compound were prepared with the appropriate solvent (in DMSO or in water). These 100×compound solutions were further diluted in endothelial cell growth and basal medium (ECBM) 1:7.5 to get a 13.33× concentrated solution. 75 μl of the 13.33×solution was subsequently mixed with 25 μl of 40× concentrated stimulus (solved in ECBM), resulting in a 10×concentrated stimulus/compound mixture. This mixture (100 μl) was incubated for 30 min at 37° C. and then added to 900 μl gel, containing the HUVEC spheroids (resulting in the final assay concentration).
(§6) Test method: the experiments were pursued in modification of the originally published protocol (Korff and Augustin: J Cell Sci 112: 3249-58, 1999). In brief, spheroids were prepared as described (Korff and Augustin: J Cell Biol 143: 1341-52, 1998) by pipetting 400 HUVEC in a hanging drop on plastic dishes to allow overnight spheroid aggregation. 50 HUVEC spheroids were then seeded in 0.9 ml of a collagen gel and pipetted into individual wells of a 24 well plate to allow polymerization. The test compounds were preincubated with the growth factors (FGF-1, FGF-2 or VEGF-A final concentration 25 ng/mL) in a 10-fold concentrated solution and subsequently, 100 μl of this solution was added on top of the polymerized gel. All compounds were diluted in solvent (DMSO or water) as 100×stocks first (which means 100×stocks of each final assay concentration were prepared in solvent). Subsequently, these stocks were further diluted in medium (resulting in the 13.33×stocks of each final assay concentration) with final concentrations tested: 100, 50, 25, 12.5, 6.25, 3.13 and 1.56×10^−6 M). Plates were incubated at 37° C. for 24 hours and fixed by adding 4% PFA (Roth, Karlsruhe, Germany).
(§7) Quantification of growth factor inhibition: sprouting intensity of HUVEC spheroids treated with the growth factor and the inhibitors were quantitated by an image analysis system determining the cumulative sprout length per spheroid (CSL).

[2] = system: Human neutrophils; experiment: Inhibition of ROS production in human neutrophils (isoluminol chemiluminescence); conditions: Homo sapiens, Neutrophil, fMLP+TNF-α stimulated PMN
Source text: NADPH oxidase, located in the plasma membrane and in the membranes of specific granules, produces superoxide anions from which other ROS, such as hydrogen peroxide, singlet oxygen, hypochlorite, and active hydroxyl radicals. ROS are released into the surrounding medium or into a membrane-enclosed subcellular organelle. One quick and sensitive method for measuring the generation of these metabolites is chemiluminescence (CL). Isoluminol amplified CL technique, is very sensitive and widely used to study respiratory burst (mainly extracellular production of ROS) induced in neutrophils.
Human neutrophils were isolated from buffy coats which obtained from healthy donors. The isolated neutrophils (3×10^6/ml) were suspended in Hanks' Balanced Salt Solution (HBSS) with Calcium and Magnesium. Neutrophils were pre-incubated with the compounds at different concentrations (0.1, 0.3, 1, 3 and 10 μM) for 30 min at 37° C. The black 96-well cell culture plates were coated with human fibrinogen (0.25 mg/ml in PBS), and incubated overnight at 4° C. or 2 hr at 37° C. Then the plates were washed with endotoxin-free PBS. The neutrophils were incubated (priming) with TNF-α (20 ng/ml) for 10 minutes at 37° C. Thereupon the 75 μl of cell suspension and 75 μl (Isoluminol+HRP solution) were added to each well. The chemiluminescence was recorded (every 25 sec for 250 sec) after fMLP (1 μM) activation using a Multilabel Reader victor3 (Perkin Elmer, USA). Background values, defined as the mean chemiluminescent values of isoluminol diluted in HBSS, were subtracted from all readings (CPS, count per second). The assays were done in duplicate or triplicate.

[3] = biological target: T2, VEGFR-2 (Homo sapiens, UniProt P35968); experiment: VEGF-165 induced phosphorylation of VEGF-Receptor on HUVEC; conditions: HUVEC preincubated 60 min, VEGF165 25 ng/mL 2 min; read-out: VEGFR-Phosphorylation inhibition IC50
T2 construct: endogenous in cells; host or cells: primary HUVEC
Procedure: Cell culture: Primary human umbilical vein endothelial cells (HUVECs) were routinely cultured in 0.1% gelatin pre-coated flasks or dishes, up to passage 6. […]
Rabbit primary antibodies for VEGFR-2, p-Tyr1175 were acquired from Cell Signaling Technology (Leiden, The Netherlands). Phospho-VEGFR-2 (Tyr1175) Sandwich ELISA Kit was from Cell Signaling Technology.
[…] Western blot analysis was performed using anti-phospho-VEGFR-2 antibody and total VEGFR-2 was used as a loading control after membrane stripping.
Inhibition of VEGFR-2-phosphorylation results are expressed as IC50 in microM [μM] versus VEGF-treated HUVECs control without inhibitory compound.

[4] = system: Human neutrophils; experiment: Neutrophil adhesion under static conditions; conditions: fMLP-stimulated adhesion to fibrinogen; method: 40 μM and 80 μM, concentration of the value not stated
Procedure: Human neutrophils obtained from buffy coats of healthy donors were suspended at 3×10^6/ml in adhesion buffer (PBS containing 1 mM CaCl2)/MgCl2 and 10% FCS, pH 7.2). Neutrophils were preincubated for 30 min at 37° C. with 40 μM and 80 μM of the compounds.
Adhesion assays were performed on 18-well glass slides coated for 18 h at 4° C. with human fibrinogen (20 μg/well in endotoxin-free PBS); 20 μl of cell suspension were added to each well and stimulated for 1 min at 37° C. with 5 μl of fMLP 1 nM final concentration. After washing, adherent cells were fixed in glutaraldehyde 1.5% in PBS and counted by computer-assisted enumeration. Statistical analysis was performed by calculating mean and standard deviation (SD); significance was calculated by unpaired t-test. All statistical analyses were performed using GraphPad Prism 6 (GraphPad Software).

[5] = biological target: T3, FGF-1 (Homo sapiens, UniProt P05230); experiment: FGF-1 induced sprouting of HUVEC, spheroid-based cellular angiogenesis assay; conditions: FGF-1 25 ng/mL preincubated with compound, 24 h
T3 construct: purchased Peprotech 100-17A
Procedure: as §1, §2, §3, §4, §5, §6, §7

T2 sequence (P35968 20-1356): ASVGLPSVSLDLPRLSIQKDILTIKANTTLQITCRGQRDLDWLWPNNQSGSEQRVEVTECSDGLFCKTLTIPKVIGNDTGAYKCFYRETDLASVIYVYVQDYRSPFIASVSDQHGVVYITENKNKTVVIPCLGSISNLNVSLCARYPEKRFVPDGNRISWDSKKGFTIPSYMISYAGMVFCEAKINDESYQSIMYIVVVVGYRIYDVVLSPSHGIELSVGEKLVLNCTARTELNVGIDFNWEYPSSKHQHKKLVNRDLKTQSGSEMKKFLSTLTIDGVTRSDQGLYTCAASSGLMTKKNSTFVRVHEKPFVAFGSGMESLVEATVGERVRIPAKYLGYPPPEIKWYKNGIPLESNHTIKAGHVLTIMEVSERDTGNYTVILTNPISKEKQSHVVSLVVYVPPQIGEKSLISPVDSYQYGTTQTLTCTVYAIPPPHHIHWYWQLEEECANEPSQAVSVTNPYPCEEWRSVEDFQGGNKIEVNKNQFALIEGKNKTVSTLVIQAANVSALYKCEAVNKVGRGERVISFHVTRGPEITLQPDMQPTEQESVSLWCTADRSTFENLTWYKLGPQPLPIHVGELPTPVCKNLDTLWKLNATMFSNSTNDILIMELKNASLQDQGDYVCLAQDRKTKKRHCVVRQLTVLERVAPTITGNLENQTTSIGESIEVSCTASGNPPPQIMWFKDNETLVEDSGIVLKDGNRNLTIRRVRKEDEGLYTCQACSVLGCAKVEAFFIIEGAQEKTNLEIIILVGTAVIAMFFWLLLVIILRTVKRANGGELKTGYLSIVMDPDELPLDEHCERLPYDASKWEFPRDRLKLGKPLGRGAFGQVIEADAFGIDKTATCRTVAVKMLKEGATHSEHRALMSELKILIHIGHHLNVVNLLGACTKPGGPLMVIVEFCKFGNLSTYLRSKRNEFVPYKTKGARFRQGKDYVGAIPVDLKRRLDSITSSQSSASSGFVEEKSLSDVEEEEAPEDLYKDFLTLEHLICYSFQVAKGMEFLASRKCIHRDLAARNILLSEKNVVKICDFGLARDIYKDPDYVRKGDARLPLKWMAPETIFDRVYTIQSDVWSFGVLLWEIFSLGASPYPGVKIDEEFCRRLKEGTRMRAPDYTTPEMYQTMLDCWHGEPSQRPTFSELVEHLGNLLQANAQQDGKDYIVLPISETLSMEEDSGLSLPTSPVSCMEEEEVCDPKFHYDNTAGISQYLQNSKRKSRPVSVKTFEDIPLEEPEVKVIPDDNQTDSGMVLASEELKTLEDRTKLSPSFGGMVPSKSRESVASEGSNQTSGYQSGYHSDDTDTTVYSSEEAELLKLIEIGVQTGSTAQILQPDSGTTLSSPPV
T3 sequence (P05230 whole entry): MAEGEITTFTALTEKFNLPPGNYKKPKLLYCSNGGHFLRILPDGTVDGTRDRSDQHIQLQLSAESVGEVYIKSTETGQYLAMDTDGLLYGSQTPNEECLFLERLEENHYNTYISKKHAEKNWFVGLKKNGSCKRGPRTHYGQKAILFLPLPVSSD
T1 sequence (P09038 134-288): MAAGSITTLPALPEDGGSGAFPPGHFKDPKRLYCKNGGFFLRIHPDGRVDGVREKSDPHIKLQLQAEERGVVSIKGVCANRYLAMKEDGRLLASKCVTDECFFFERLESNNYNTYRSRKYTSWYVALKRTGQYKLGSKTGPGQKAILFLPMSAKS

Structure (SMILES): O=C(O)c1cc(O)c(CS(=O)(=O)Cc2cc(O)c(C(=O)O)cc2O)cc1O [IIIc-059a, 4-((2,5-Dihydroxy-4-carboxyphenyl)methylsulfonylmethyl)-2,5-dihydroxybenzoic acid]
- pIC50 [1]: 4.30
- inhibition at 0.3 µM [2]: 66.4%
- pIC50 [2]: 6.00
- pIC50 [3]: 5.44
- Neutrophil adhesion inhibition [4]: 14.67%
- pIC50 [5]: 4.33

Structure (SMILES): O=C(O)c1ccccc1NC(=O)c1cc(O)cc(C(=O)O)c1O [IIa-001a, 3-(2-carboxyphenylaminocarbonyl)-2,5-dihydroxybenzoic acid]
- pIC50 [1]: 4.96
- inhibition at 0.3 µM [2]: 30.5%
- pIC50 [2]: 6.39
- pIC50 [3]: ≤ 4.00
- Neutrophil adhesion inhibition [4]: 36.24%
- pIC50 [5]: 5.07

Structure (SMILES): CCOC(=O)c1cc(O)cc(C(=O)Nc2ccccc2-c2nnn[nH]2)c1O [IIa-001aTz-E1, ethyl 3-(2-(1H-tetrazol-5-yl)phenylaminocarbonyl)-2,5-dihydroxybenzoate]
- pIC50 [1]: 4.38
- inhibition at 0.3 µM [2]: 68.9%
- pIC50 [3]: ≤ 4.00
- Neutrophil adhesion inhibition [4]: 81.94%
- pIC50 [5]: ≤ 3.70

Structure (SMILES): O=C(O)c1ccc(NC(=O)c2cc(O)cc(C(=O)O)c2O)cc1 [IIa-003a, 3-(4-carboxyphenylaminocarbonyl)-2,5-dihydroxybenzoic acid]
- pIC50 [1]: 4.89
- inhibition at 0.3 µM [2]: 59.3%
- pIC50 [3]: 5.60
- Neutrophil adhesion inhibition [4]: 35.27%
- pIC50 [5]: 4.66

Structure (SMILES): O=C(O)c1cc(NC(=O)c2cc(O)cc(C(=O)O)c2O)ccc1O [IIa-004a, 3-(3-carboxy-4-hydroxyphenylaminocarbonyl)-2,5-dihydroxybenzoic acid]
- pIC50 [1]: 4.48
- inhibition at 0.3 µM [2]: 63.5%
- pIC50 [2]: 6.00
- pIC50 [3]: ≤ 4.00
- Neutrophil adhesion inhibition [4]: 36%
- pIC50 [5]: 4.33

Structure (SMILES): O=C(O)c1cc(O)cc(C(=O)Nc2cccc(C(=O)O)c2C(=O)O)c1O [IIa-011a, 3-(3-carboxy-2,5-dihydroxybenzamido)phthalic acid]
- pIC50 [1]: 3.91
- inhibition at 0.3 µM [2]: 58.1%
- pIC50 [2]: 5.93
- pIC50 [3]: ≤ 4.00
- Neutrophil adhesion inhibition [4]: 26%
- pIC50 [5]: 3.85

Structure (SMILES): O=C(O)Cc1cccc(NC(=O)c2cc(O)cc(C(=O)O)c2O)c1 [IIa-033a, 3-(3-(carboxymethyl)phenylaminocarbonyl)-2,5-dihydroxybenzoic acid]
- pIC50 [1]: 4.49
- inhibition at 0.3 µM [2]: 50.6%
- pIC50 [2]: 6.04
- pIC50 [3]: 5.31
- Neutrophil adhesion inhibition [4]: 11.75%
- pIC50 [5]: 4.46

Structure (SMILES): CCOC(=O)c1cc(O)c(C(=O)Nc2ccc(O)c(C(=O)OC)c2)cc1O [Ia-004a-E2, ethyl 2,5-dihydroxy-4-(4-hydroxy-3-(methoxycarbonyl)phenylaminocarbonyl)benzoate]
- pIC50 [1]: 4.44
- inhibition at 0.3 µM [2]: 85.3%
- pIC50 [3]: 5.21
- Neutrophil adhesion inhibition [4]: 97.65%
- pIC50 [5]: 4.46

Structure (SMILES): O=C(O)Cc1cccc(NC(=O)c2cc(O)c(C(=O)O)cc2O)c1 [Ia-033a, 4-(3-(carboxymethyl)phenylaminocarbonyl)-2,5-dihydroxybenzoic acid]
- pIC50 [1]: 3.78
- inhibition at 0.3 µM [2]: 57.7%
- pIC50 [2]: 5.88
- pIC50 [3]: ≤ 4.00
- Neutrophil adhesion inhibition [4]: 38%
- pIC50 [5]: 4.22

Structure (SMILES): O=C(O)c1cc(O)c(C(=O)NCc2ccc(O)c(O)c2)cc1O [Ia-035a, 4-(3,4-Dihydroxyphenylmethylaminocarbonyl)-2,5-dihydroxybenzoic acid]
- pIC50 [1]: 4.15
- inhibition at 0.3 µM [2]: 75.1%
- pIC50 [2]: 6.39
- pIC50 [3]: 4.44
- Neutrophil adhesion inhibition [4]: 27%
- pIC50 [5]: 4.70

Structure (SMILES): COC(=O)c1cc(NC(=O)c2cc(O)c(C(=O)Nc3ccc(O)c(C(=O)OC)c3)cc2O)ccc1O [Ic-007a-E2, methyl 5-(2,5-dihydroxy-4-(4-hydroxy-3-(methoxycarbonyl)phenylaminocarbonyl)benzamido)-2-hydroxybenzoate]
- pIC50 [1]: 4.31
- inhibition at 0.3 µM [2]: 21.3%
- pIC50 [2]: 5.10
- pIC50 [3]: 6.60
- Neutrophil adhesion inhibition [4]: 2%
- pIC50 [5]: 4.64

Structure (SMILES): COC(=O)c1cc(O)ccc1NC(=O)c1cc(O)c(C(=O)Nc2ccc(O)cc2C(=O)OC)cc1O [Ic-009a-E2, methyl 2-(2,5-dihydroxy-4-(4-hydroxy-2-(methoxycarbonyl)phenylaminocarbonyl)benzamido)-5-hydroxybenzoate]
- pIC50 [1]: 4.52
- inhibition at 0.3 µM [2]: 24.1%
- pIC50 [3]: 7.70
- Neutrophil adhesion inhibition [4]: 41.05%
- pIC50 [5]: 4.64
